Data reported in patent US20150273088A1 (Board of Regents, The University of Texas System, priority 2014, published 2015).
One block for each compound: values may come before it.

Tests used:
[1] = tested on: HT1080 cells (endogenous IDH1 R132C); experiment: 2HG fluorimetric assay / high-throughput screen, secreted 2HG in media; assay type: cell-based, human; conditions: for Secreted (extracellular) 2HG: HT1080 cells, 48 hours, fluorescent assay, normalized to viability; for Viability in high-throughput screen (Alamar Blue) / 2HG in high-throughput screen: HT1080, 48 hours; for 2HG in high-throughput screen: screen hits top left quadrant
Description: 2HG fluorimetric assay. N-terminal 6×-His tagged PHGDH was expressed and purified from chemically competent BL-21 E. coli using Ni-NTA agarose (Qiagen) (Grant et al., 1999). Purified protein was then dialyzed in 40 mM KPO4 buffer at 4° C. overnight. Conditioned culture media (DMEM or aMEM) containing 2HG was neutralized with 60 mM HCL for 10 minutes followed by 60 mM Tris base. A 20 μL aliquot of neutralized conditioned media was then mixed with 90 μL of optimized assay reaction mix consisting of 5 μg purified PHGDH enzyme, 12.5 μM resazurin (Sigma-Aldrich), 0.125 U/ml diaphorase (Sigma-Aldrich), 1 mM NAD (Sigma-Aldrich), 40 mM Tris-HCl pH 8.8, and incubated for 90 minutes in a 96-well plate. Resorufin fluorescence was then quantified using a FLUOstar™ OPTIMA fluorescence plate reader (BMG Labtech) with excitation and emission peaks of 544 nm and 590 nm, respectively. Measurements were background subtracted (neutralized fresh media) and normalized either to total protein or viability as measured by Alamar Blue (Naik et al., 2009).
High-throughput screening. Screening was carried out using the Beckman Coulter (Fullerton, Calif.) Core Robotics system, including an FX liquid handler, controlled by the Sagian graphical method development tool (SAMI scheduling software). The Institute of Chemistry and Cell Biology (ICCB) Known Bioactives Library (Enzo Lifescience, BML-2840-0100) was diluted 1:200 in αMEM and 50 μL were added to pre-plated HT1080 cells. After 48 hours of incubation, media was removed and 2HG in the media was measured using the fluorimetric assay. Fresh 2HG fluorimetric assay reaction mix was prepared immediately before assaying each screen plate to limit background modulation. Cell viability was determined using Alamar Blue, as described previously (Naik et al., 2009).
To identify screen hits and account for differences in compound toxicity, 2HG fluorescence was first median-centered around DMSO treatment controls within each screen plate. 2HG fluorescence was then plotted against viability such that a correlation between the two measurements could be visualized. A linear fit and 95% predictive interval (P.I.) were then determined and plotted using GraphPad Prism (GraphPad Software).

[2] = tested on: D54 glioblastoma cells expressing IDH1 R132H; conditions: cited from earlier work
HT1080 cells = experiment: GC-MS quantification of 2HG and upstream metabolites in HT1080 cells; assay type: cell-based, human; conditions: for Cellular 3-phosphoglycerate (3PG) level: HT1080, 300 μM Zaprinast or 10 μM BPTES
Description: (§1) GC-MS analysis. Metabolite extraction from cultured cells was performed as described previously by Figueroa et al. (2010). Briefly, cells were rinsed in ice cold PBS and rapidly quenched with 80% methanol spiked with 3-hydroxy-1,5-pentanedioic-2,2,3,4,4-d5 acid (CDN Isotopes, Quebec Canada) as an internal standard. Extracts were then incubated at −80° C. for 20 minutes, sonicated on ice, centrifuged at 14,000×g for 20 minutes at 4° C. to clear precipitate proteins, and supernatants transferred to vials for drying under N2. Derivatizing reagent (MSTFA (N-methyl-N-(trimethylsilyl)trifluoroacetamide):pyridine:acetonitrile 1:1:2) was added to the vials, which were then heated at 70° C. for 15 minutes.
(§2) Derivatized samples were analyzed on an Agilent 7890A gas chromatograph interfaced to an Agilent 5975C mass spectrometer. The GC column used for the study was a HP-5MS (30 m, 0.25 mm i.d., 0.25 μm film coating). A linear temperature gradient was used. The initial temperature of 80° C. was held for 2 minute and increased to 300° C. at 10° C./minute. The temperature was held at 300° C. for 2 minutes. The samples were run by electron ionization (EI) and the source temperature, electron energy, and emission current were 200° C., 70 eV, and 300 μA, respectively. The injector and transfer line temperatures were 250° C. 3-Hydroxy-1,5-pentanedioic-2,2,3,4,4-d5 acid was used as the internal standard in SIM mode for quantitation of 2-hydroxyglutaric acid. Quantitation was carried out by monitoring the ions at m/z 347 (glutamine and αKG), 348 (glutamate), 349 (2-hydroxyglutaric acid), and 354 (3-hydroxy-1,5-pentanedioic-2,2,3,4,4-d5).

[3] = tested on: NHA cells expressing IDH1 R132H; experiment: Soft agar colony assay; assay type: cell-based, human; conditions: IDH1 R132H astrocytes
Excerpt: Soft agar assay. A bottom layer of 0.6% soft agar with complete DMEM and 10% FBS was set in 6-well plates and allowed to solidify. Approximately 8,000 cells were then suspended in 0.4% soft agar and plated on top. Colonies were allowed to develop over 3-4 weeks and stained with crystal violet.

[4] = tested on: PDAC cells Panc1 and MiaPaca2; experiment: GC-MS of glutamine, glutamate and αKG in PDAC cells; assay type: cell-based; conditions: 300 μM, 48 hours
Description: as §1, §2

[5] = tested on: PDAC cells Panc1 and MiaPaca2; experiment: ROS quantification (DCFDA); assay type: cell-based; conditions: 48 hours
Description: ROS quantification. Reactive oxygen species levels in PDAC cells were quantified using 2,7-dichlorofluorescein diacetate (DCFDA). Following 48 hours of drug treatment in a 96-well plate, cells were washed with PBS, stained for 30 minutes at 37° C. with 20 μM DCFDA, and imaged using an InCell Analyzer 1000. A 10× objective was used to collect 16 fluorescent and bright field images per well with a 10% overlap to allow image stitching. Stained cells were then quantified using the GE InCell Investigator software package with Developer Toolbox.

[6] = tested on: NHA cells ectopically expressing R132H IDH1; experiment: GC-MS quantification of 2HG and upstream metabolites in NHA cells expressing IDH1 R132H; assay type: cell-based, human; conditions: 48 hours
Description: as §1
as §2, with “The temperature was held at 300° C. for 2 minutes. The samples were run by electron ionization (EI) and the source temperature, electron energy, and emission current were 200° C., 70 eV, and 300 μA, respectively. The injector and transfer line temperatures were 250° C.” left out

[7] = tested on: PDAC cells Panc1 and MiaPaca2; experiment: Growth of PDAC cells; assay type: cell-based
Excerpt: (§3) Cell culture, transfection, and generation of stable cell lines. HT1080, HEK293T, Panc1, and MIA PaCa-2 cells were obtained from the American Type Culture Collection (ATCC). Normal human astrocytes (NHA) immortalized with E6/E7/hTERT were a kind gift from Dr. Russell O. Pieper (University of California, San Francisco). All cells tested negative for mycoplasma infection. HT1080 cells were authenticated by genotyping for IDH1 and were confirmed to harbor a heterozygous IDH1 R132C mutation by Sanger sequencing of genomic DNA products. The remaining cell lines were not further authenticated. HEK293T, NHA, PANC-1, and MIA Paca-2 cells were maintained with complete DMEM containing 10% fetal bovine serum (FBS) and 1% penicillin/streptomycin (P/S). HT1080 cells were maintained in αMEM containing 10% FBS and 1% P/S. Glutamine-free DMEM (Life Technologies) was supplemented with 10% FBS and 1% P/S and spiked with varying amounts of L-glutamine (Cellgro) for glutamine growth curves.

[8] = molecular target: T1, purified, full length, human GLS1 (Homo sapiens, UniProt O94925); experiment: Glutaminase assay (two-step, purified enzyme); assay type: biochemical
T1 construct: 6xHis (N); made in house; host or cells: E. coli BL-21
T1 sequence (O94925 55-669): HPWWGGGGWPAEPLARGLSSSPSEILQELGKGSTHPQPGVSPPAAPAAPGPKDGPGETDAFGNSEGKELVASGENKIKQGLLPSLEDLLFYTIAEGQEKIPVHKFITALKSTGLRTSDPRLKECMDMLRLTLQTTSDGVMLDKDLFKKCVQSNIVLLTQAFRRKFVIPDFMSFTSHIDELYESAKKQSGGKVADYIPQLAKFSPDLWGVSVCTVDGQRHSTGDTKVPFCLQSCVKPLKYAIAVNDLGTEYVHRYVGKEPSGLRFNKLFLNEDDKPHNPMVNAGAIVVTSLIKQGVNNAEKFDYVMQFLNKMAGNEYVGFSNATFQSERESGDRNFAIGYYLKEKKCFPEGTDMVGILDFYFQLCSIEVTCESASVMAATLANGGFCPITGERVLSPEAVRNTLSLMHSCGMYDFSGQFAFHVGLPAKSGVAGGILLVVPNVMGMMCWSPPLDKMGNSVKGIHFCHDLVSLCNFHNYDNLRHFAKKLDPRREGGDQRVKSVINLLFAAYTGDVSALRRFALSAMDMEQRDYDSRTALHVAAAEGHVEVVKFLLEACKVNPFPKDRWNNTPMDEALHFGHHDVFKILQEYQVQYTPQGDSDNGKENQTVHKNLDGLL
Description: Glutaminase assay. N-terminal 6×-His tagged GLS1 was expressed and purified from chemically competent BL-21 E. coli using Ni-NTA agarose beads (Qiagen). Purified protein was then dialyzed in a 50 mM Tris-phosphate buffer containing 1 mM dithiothreitol at 4° C. overnight. A previously described two-step assay was used to measure glutaminase activity (Kenny et al., 2003). […] […] […] For the second step of the assay, 20 μL of completed and quenched initial reaction were transferred to a new plate and 200 μL of secondary reaction mix containing 0.4 mg bovine liver glutamate dehydrogenase (Sigma-Aldrich), 0.09 M Tris-acetate (pH 9.4), 0.2 M hydrazine, 0.25 mM ADP, and 2 mM NAD was added. Samples were incubated for 40 minutes at room temperature and absorbance of NADH (340 nm) was measured using a microplate spectrophotometer.

[9] = tested on: NHA cells expressing IDH1 R132H or wild type IDH1; experiment: Histone lysine methylation by Western blot in immortalized NHA cells; assay type: cell-based, human
Description: Histone extraction and Western blot analysis. For extraction of total cellular protein, cells were lysed in RIPA buffer (150 mM NaCl, 50 mM Tris, 5 mM EDTA, 1% NP-40, 0.1% SDS, 0.5% sodium deoxycholate, pH 7.4), supplemented with protease inhibitor cocktail (Roche), sodium orthovanadate (1 mM), and PMSF (1 mM). Whole-cell lysates were normalized for protein content by BCA assay (Pierce). Histone extraction was performed using an EpiQuik™ Total Histone Extraction Kit (Epigentek) and extracted protein was quantified using a Bradford assay.
Proteins were resolved by SDS-PAGE, transferred to a PVDF membrane and probed with the following antibodies: IDH1 (Origene, TA500610), 6× His (Abcam, ab1187), H3K9Me2 (Cell Signaling, 4658p), H3K9Me3 (Abcam, ab8898), H3K27Me3 (Millipore, 07-449), H3K79Me2 (Cell Signaling, 9757p), total H3 (Cell Signaling, 4499p), and Actin. Secondary anti-mouse and anti-rabbit horseradish peroxidase-conjugated IgG antibodies were used for detection.

[10] = tested on: PDAC cells Panc1 and MiaPaca2; experiment: Sensitivity to H2O2, viability by Alamar Blue; assay type: cell-based
Excerpt: as §3

SMILES: Nc1nc2c(nc(Br)n2[C@@H]2O[C@@H]3COP(=O)(O)O[C@H]3[C@H]2O)c(=O)[nH]1 [8-bromo-cGMP]
Secreted (extracellular) 2HG [1]: did not cause a reduction

SMILES: O=C(Cc1ccccc1)Nc1nnc(CCSCCc2nnc(NC(=O)Cc3ccccc3)s2)s1 [BPTES]
2HG levels in D54 cells [2]: unaffected | Growth of D54 cells expressing IDH1 R132H compared to wild type IDH1 [2]: preferentially limits growth | Cellular 3-phosphoglycerate (3PG) level (HT1080 cells): did not cause an elevation

SMILES: COCc1cc(O)c(O)c(O)c1-c1c(COC)cc(O)c(O)c1O [HBDDE]
Viability in high-throughput screen (Alamar Blue) [1]: little effect on viability | 2HG in high-throughput screen [1]: reduced 2HG

SMILES: CCCc1nn(C)c2c(=O)[nH]c(-c3cc(S(=O)(=O)N4CCN(C)CC4)ccc3OCC)nc12 [Sildenafil]
Secreted (extracellular) 2HG [1]: no change

Mode of GLS1 inhibition ([8]; Lineweaver-Burk, with respect to glutamine): noncompetitive inhibitor | IC50 ([8]; purified human GLS1, read-out: IC50, enzymatic activity of GLS1): ~200 µM | Ki ([8]; read-out: Ki, GLS1 kinetic analysis): 220 µM
SMILES: CCCOc1ccccc1-c1nc2nn[nH]c2c(=O)[nH]1 [Zaprinast, 5-(2-propoxyphenyl)-1H-[1,2,3]triazolo[4,5-d]pyrimidin-7(4H)-one]
Soft agar colony formation [3]: reduced colony formation in IDH1 R132H astrocytes down to the level of vector and wild-type cells | Cellular glutamine [4]: increase | Cellular pool of glutamate [4]: significant reductions | Cellular pool of αKG [4]: significant reductions | Reactive oxygen species (DCFDA-positive cells) [5]: increase in reactive oxygen species (ROS) in a concentration-dependent manner | Intracellular 2HG by GC-MS [6]: modulated in a concentration-dependent manner | Pattern of 2HG and upstream metabolite changes ([6]; compared with HT1080): the same pattern of metabolite level changes | Growth of PDAC cells ([7]; 100 μM and 300 μM Zaprinast): significantly reduced | Growth of PDAC cells with glutamate supplementation ([7]; Zaprinast with 5 mM glutamate): restoration of growth | Methylation levels of H3K9Me2 or H3K9Me3 ([9]; IDH1 WT expressing astrocytes, 300 μM): did not produced such a marked reduction | Histone methylation marks (H3K9Me2, H3K9Me3, H3K27Me3, H3K79Me2) ([9]; astrocytes expressing R132H IDH1): marked reduction toward baseline methylation levels | Cellular 3-phosphoglycerate (3PG) level (HT1080 cells): did not cause an elevation | Cellular alpha-ketoglutarate level (HT1080 cells; HT1080, 48 hours): reduced | Cellular glutamate level (HT1080 cells; HT1080, 48 hours): reduced | Intracellular 2HG by GC-MS (HT1080 cells; HT1080, 48 hours): modulated in a concentration-dependent manner | Intracellular glutamine level (HT1080 cells; HT1080, 48 hours): unaffected | Sensitivity to oxidative damage after adding back glutamate ([10]; Zaprinast with 5 mM glutamate): nearly completely abolished the increased sensitivity to oxidative damage | Susceptibility to hydrogen peroxide stress versus vehicle ([10]; cells pretreated with Zaprinast): significantly more susceptible | Viability in high-throughput screen (Alamar Blue) [1]: little effect on viability | 2HG in high-throughput screen [1]: reduced 2HG | Secreted (extracellular) 2HG [1]: concentration-dependent reduction | Concentration required to observe a significant reduction in 2HG ([1]; in cells): 100 to 300 µM

Effect on GLS1 enzymatic activity ([8]; control experiment, 10 mM glutamine): no direct effect
SMILES: Nc1nc2c(ncn2[C@@H]2O[C@@H]3COP(=O)(O)O[C@H]3[C@H]2O)c(=O)[nH]1 [cGMP]
